Measured values published in patent US9512139B2, “Conformationally constrained, fully synthetic macrocyclic compounds” (POLYPHOR AG, priority 2009, dated 2016).

Key:
[1] = in vitro; assay type: in vitro ADME, human; settings: human, plasma, 10 µM; for Plasma Stability 240 min hum [% remain.]: 4 h
[2] = in vitro; assay type: in vitro ADME, mouse; settings: CD-1, mouse, plasma; for Plasma Stability T½ [min] mouse / Plasma Stability 240 min mouse [% remain.]: both, 10 µM; for Plasma Stability 240 min mouse [% remain.]: 4 h
Protocol: Example compounds were dissolved in DMSO/H2O 90:10 to a final concentration of 10 mM for plasma stability determination and metabolic stability determination.
Human plasma (3-5 donors, Blutspendedienst SRK, Basel) and CD-1 mouse plasma (mixed gender pool >50 animals, Innovative Research, CA, USA) are both sodium citrate stabilized. The assay is performed in triplicates at 10 μM compound concentration and 37° C. Samples are taken at 0, 15, 60, and 240 minutes and stopped by precipitation with 2 volumes of acetonitrile. The supernatant is collected, evaporated and reconstituted in a 5% acetonitrile solution to be analyzed by HPLC/MS/MS. The resulting peak area counts are expressed in percent of the 0 value and used to determine the endpoint stability in % and the half life in minutes. In order to monitor assay integrity the degradation of propantheline is assayed with every experimental set.

[3] = Metabolic stability assay, human microsomes; assay type: in vitro ADME; settings: both, human, microsomes, 10 µM; for Metabolic Stability 60 min hum [% remain.]: 1 h
Protocol: (§1) 4. Plasma and Metabolic Stability Assays
(§2) The assays were conducted according to literature precedents (F. P. Guengerich, Analysis and Characterization of Enzymes; in: Principles and Methods of Toxicology; A. W. Hayes (Ed.) Raven Press: New York, 1989, 777-813; R. Singh et al., In vitro metabolism of a potent HIV-protease inhibitor (141W94) using rat, monkey and human liver S9, Rapid Commun. Mass Spectrom. 1996, 10, 1019-1026).
(§3) Metabolic Stability Assay
(§4) Microsomes from a human 50 donor mixed gender pool and 1:1 mixtures of microsomes from CD-1 mouse single-gender pools are purchased from Celsis (Belgium). The enzymatic reaction is performed in a buffer containing an NADPH regeneration system and microsomes with the following end concentrations: 100 mM potassium phosphate buffer (all from Sigma), 1 mg/mL glucose-6-phosphate, 1 mg/mL β-nicotinamide adenine dinucleotide phosphate (NADP), 0.65 mg/mL magnesium chloride, 0.8 units/mL of glucose-6-phosphate dehydrogenase (prediluted with 5 mM citrate buffer), 10 μM compound and 1 mg/ml microsomal protein. Compounds are incubated at 37° C. in duplicates and samples are taken after 0, 20 and 60 minutes. After acetonitrile precipitation (2 volumes) and HPLC/MS/MS analysis metabolic turnover is expressed in % of the initial 0 minutes value and half life T½ (min) is calculated. Verapamil for human and propranolol for mouse are used as reference and are assayed with every experimental set.

[4] = Metabolic stability assay, CD-1 mouse microsomes; assay type: in vitro ADME; settings: CD-1, mouse, microsomes; for Metabolic Stability T½ [min] mouse / Metabolic Stability 60 min mouse [% remain.]: both, 10 µM; for Metabolic Stability 60 min mouse [% remain.]: 1 h
Protocol: as §1, §2, §3, §4
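For Plasma Stability 240 min mouse [% remain.] in this document: sodium citrate stabilized mouse plasma, parent compound quantified by HPLC/MS/MS relative to its peak area at time zero, run in triplicate.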
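For Plasma Stability T½ [min] mouse in this document: sodium citrate stabilized mouse plasma, parent compound quantified by HPLC/MS/MS relative to its peak area at time zero, run in triplicate.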

**Q.** For CC(=O)N1CCN([C@H]2CCCN(C)C(=O)c3cccc(c3)OC[C@@H]3C[C@H](O)CN3C2=O)CC1 [Ex. 582, (4S,6S,10S)-10-(4-acetylpiperazino)-6-hydroxy-14-methyl-2-oxa-8,14-diazatricyclo[14.3.1.0^4,8]icosa-1(20),16,18-triene-9,15-dione], which Plasma Stability T½ [min] hum [1] is on record?
**A.** > 240 min

**Q.** What about the “Plasma Stability 240 min hum [% remain.]” value [1] of the same molecule?
**A.** 100 % remain.

**Q.** And the Plasma Stability T½ [min] mouse [2]?
**A.** > 240 min

**Q.** And the “Plasma Stability 240 min mouse [% remain.]” value [2]?
**A.** 96 % remain.

**Q.** What about the Metabolic Stability T½ [min] hum [3] of the same molecule?
**A.** > 60 min

**Q.** And the “Metabolic Stability 60 min hum [% remain.]” value [3]?
**A.** 100 % remain.

**Q.** What about the Metabolic Stability T½ [min] mouse [4] of the same molecule?
**A.** > 60 min

**Q.** And the “Metabolic Stability 60 min mouse [% remain.]” value [4]?
**A.** 98 % remain.

**Q.** Which results are given for CN(C)CCNC(=O)[C@H]1CCC(=O)N(C)CC(=O)N2CCN(C(=O)Cc3ccc4ccccc4c3)C[C@@H]2COc2ccc(F)cc2C(=O)N1C [Ex. 138, (12R,20aR)-N-[2-(dimethylamino)ethyl]-16-fluoro-8,13-dimethyl-2-[2-(2-naphthyl)acetyl]-6,9,14-trioxo-1,2,3,4,7,8,9,10,11,12,13,14,20,20a-tetradecahydro-6H-pyrazino[2,1-c][1,4,7,12]benzoxatriazacyclopentadecine-12-carboxamide]?
**A.** Plasma Stability T½ [min] hum [1]: > 240 min; Plasma Stability 240 min hum [% remain.] [1]: 89 % remain.; Plasma Stability T½ [min] mouse [2]: > 240 min; Plasma Stability 240 min mouse [% remain.] [2]: 78 % remain.; Metabolic Stability T½ [min] hum [3]: > 60 min; Metabolic Stability 60 min hum [% remain.] [3]: 62 % remain.; Metabolic Stability T½ [min] mouse [4]: > 60 min; Metabolic Stability 60 min mouse [% remain.] [4]: 99 % remain.

**Q.** Which Plasma Stability T½ [min] hum [1] does the source give for CN1CC(=O)N2C[C@H](NC(=O)Cc3ccc4ccccc4c3)C[C@H]2COc2ccc(cc2)C(=O)N(C)[C@H](C(=O)N2CCCC2)CCC1=O [Ex. 264, N-[(4S,6R,15S)-11,16-dimethyl-9,12,17-trioxo-15-(1-pyrrolidinylcarbonyl)-2-oxa-8,11,16-triazatricyclo[16.2.2.0^4,8]docosa-1(20),18,21-trien-6-yl]-2-(2-naphthyl)acetamide] here?
**A.** > 240 min

**Q.** What about the “Plasma Stability 240 min hum [% remain.]” value [1] of the same molecule?
**A.** 94 % remain.

**Q.** And the Plasma Stability T½ [min] mouse [2]?
**A.** > 240 min

**Q.** And the “Plasma Stability 240 min mouse [% remain.]” value [2]?
**A.** 88 % remain.

**Q.** And the half-life at 10 µM ([4]; both sexes)?
**A.** 0.7 h

**Q.** What about the “Metabolic Stability 60 min mouse [% remain.]” value [4] of the same molecule?
**A.** 32 % remain.

**Q.** With CCN(CC)[C@H]1C[C@H]2COc3ccc(F)cc3C(=O)N(C)[C@H](C(=O)N3CCCC3)CCC(=O)N(C)CC(=O)N2C1 [Ex. 43, (2S,11S,19aS)-2-(diethylamino)-15-fluoro-7,12-dimethyl-11-(1-pyrrolidinylcarbonyl)-2,3,6,7,9,10,11,12,19,19a-decahydro-1H,5H-pyrrolo [2,1-c] [1,4,7,12]benzoxatriazacyclopentadecine-5,8,13-trione] as the molecule, how does the Plasma Stability T½ [min] hum [1] read?
**A.** > 240 min

**Q.** And the “Plasma Stability 240 min hum [% remain.]” value [1]?
**A.** 82 % remain.

**Q.** And the Plasma Stability T½ [min] mouse [2]?
**A.** > 240 min

**Q.** What about the “Plasma Stability 240 min mouse [% remain.]” value [2] of the same molecule?
**A.** 89 % remain.

**Q.** What about the Metabolic Stability T½ [min] hum [3] of the same molecule?
**A.** > 60 min

**Q.** What about the “Metabolic Stability 60 min hum [% remain.]” value [3] of the same molecule?
**A.** 100 % remain.

**Q.** What about the Metabolic Stability T½ [min] mouse [4] of the same molecule?
**A.** > 60 min

**Q.** What about the “Metabolic Stability 60 min mouse [% remain.]” value [4] of the same molecule?
**A.** 98 % remain.

**Q.** Which half-life at 10 µM ([2]; both sexes) does the source give for CCCCC(=O)N[C@H]1C[C@H]2COc3cccc(c3)C(=O)N(C)CC[C@H](N)C(=O)N2C1 [Ex. 167, N-[(4S,6S,10S)-10-amino-13-methyl-9,14-dioxo-2-oxa-8,13-diazatricyclo[13.3.1.0^4,8]nonadeca-1(19),15,17-trien-6-yl] pentanamide] here?
**A.** 0.583 h

**Q.** What about the “Plasma Stability 240 min mouse [% remain.]” value [2] of the same molecule?
**A.** 17 % remain.

**Q.** And the Metabolic Stability T½ [min] hum [3]?
**A.** > 60 min

**Q.** And the “Metabolic Stability 60 min hum [% remain.]” value [3]?
**A.** 58 % remain.

**Q.** And the Metabolic Stability T½ [min] mouse [4]?
**A.** > 60 min

**Q.** And the “Metabolic Stability 60 min mouse [% remain.]” value [4]?
**A.** 65 % remain.
